This is an account of results in ChEMBL document CHEMBL4396865, “Current advances of triazole alcohols derived from fluconazole: Design, in vitro and in silico studies” (2019).

Converted amounts (≈) assume the structure as drawn.

Holding throughout (assay type): functional
Experiment [1] has as its system Fonsecaea compacta. Kind of experiment: Potency index, ratio of fluconazole MIC to test compound MIC for Fonsecaea compacta.
The subject of experiment [2] is Fonsecaea compacta. Kind of experiment: Antifungal activity against Fonsecaea compacta after 24 hrs by microbroth dilution method.
The test system of experiment [3] is Aspergillus fumigatus. Kind of experiment: Antifungal activity against Aspergillus fumigatus after 24 hrs by microbroth dilution method. A general note: In broth dilution the organism is exposed to a series of concentrations in liquid medium.
Experiment [4] concerns Trichophyton rubrum. In words: Antifungal activity against Trichophyton rubrum after 24 hrs by microbroth dilution method.
Experiment [5] deals with Cryptococcus neoformans. Kind of experiment: Potency index, ratio of fluconazole MIC to test compound MIC for activity against Cryptococcus neoformans ATCC 32609.
Experiment [6] has as its system Candida albicans. In words: Potency index, ratio of fluconazole MIC to test compound MIC for Candida albicans ATCC 76615.
For experiment [7], the system named is Microsporum canis. Kind of experiment: Potency index, ratio of fluconazole MIC to test compound MIC for Microsporum canis.
The subject of experiment [8] is Candida tropicalis. Kind of experiment: Potency index, ratio of fluconazole MIC to test compound MIC for Candida tropicalis.
Experiment [9] relates to Microsporum canis. In words: Antifungal activity against Microsporum canis after 24 hrs by microbroth dilution method.
Experiment [10] deals with Aspergillus fumigatus. Kind of experiment: Potency index, ratio of fluconazole MIC to test compound MIC for Aspergillus fumigatus.
For experiment [11], the system named is Candida tropicalis. In words: Antifungal activity against Candida tropicalis after 24 hrs by microbroth dilution method.
Experiment [12] deals with Trichophyton rubrum. Kind of experiment: Potency index, ratio of fluconazole MIC to test compound MIC for Trichophyton rubrum.
Experiment [13] deals with Candida parapsilosis. In words: Antifungal activity against fluconalzole-susceptible Candida parapsilosis after 24 hrs. Conditions: Lodderomyces parapsilosis.
In experiment [14] the test system is Candida albicans. In words: Antifungal activity against fluconalzole-susceptible Candida albicans after 24 hrs.
For experiment [15], the system named is Candida tropicalis. In words: Antifungal activity against Candida tropicalis. Conditions: Candida tropicalis.
Experiment [16] concerns Candida albicans. In words: Antifungal activity against Candida albicans. Conditions: Candida albicans.
The subject of experiment [17] is Candida parapsilosis. Kind of experiment: Antifungal activity against Candida parapsilosis. Conditions: Lodderomyces parapsilosis.
The subject of a further experiment is Pichia kudriavzevii. In words: Antifungal activity against Candida krusei.
Experiment [18] deals with Cryptococcus neoformans. In words: Antifungal activity against Cryptococcus neoformans. Conditions: Cryptococcus neoformans.

Regarding `OC(CN(Cc1ccc(Br)cc1)C1CC1)(Cn1cncn1)c1ccc(F)cc1F` (stereo not given), the Ratio in the experiment on Fonsecaea compacta [1], with Cryptococcus neoformans [5], in the experiment on Candida albicans [6], in the experiment on Microsporum canis [7], in the experiment with Candida tropicalis [8] and in the experiment on Aspergillus fumigatus [10] was 4 in each case. For the same compound, the Ratio in the experiment with Trichophyton rubrum [12] was found to be 4. Moreover, the MIC80 against Fonsecaea compacta [2], against Aspergillus fumigatus [3], against Trichophyton rubrum [4], against Microsporum canis [9] and against Candida tropicalis [11] was 0.125 µg/mL (≈ 0.27 µM) in each case.

Turning to `Cc1ccc(CN(CC(O)(Cn2cncn2)c2ccc(F)cc2F)C2CC2)cc1` (stereo not given), the Ratio in the experiment on Fonsecaea compacta [1], in the experiment on Cryptococcus neoformans [5], in the experiment on Candida albicans [6], in the experiment on Microsporum canis [7], with Candida tropicalis [8] and in the experiment on Aspergillus fumigatus [10] was 4 each time. Also, in the experiment with Trichophyton rubrum [12], the Ratio is listed as 4. Further, the MIC80 against Fonsecaea compacta [2], against Aspergillus fumigatus [3], against Trichophyton rubrum [4], against Microsporum canis [9] and with Candida tropicalis [11] was 0.125 µg/mL (≈ 0.314 µM) in each case.

In the case of `OC(Cn1cncn1)(Cn1cnc(SCc2ccc(Cl)c(Cl)c2)n1)c1ccc(F)cc1F` (stereo not given), the MIC in the experiment with Candida parapsilosis [13] and against Candida albicans [14] was 0.063 to 1 µg/mL (≈ 0.127 to 2.01 µM) in each case.

Turning to `CN(CC(=O)Nc1ccc(Cl)cc1)CC(O)(Cn1cncn1)c1ccc(F)cc1F` (stereo not given), the MIC80 is 0.25 to 1 µg/mL (≈ 0.574 to 2.29 µM) with Candida tropicalis [15]; 0.0156 µg/mL (≈ 0.0358 µM) against Candida albicans [16]; 0.25 to 1 µg/mL (≈ 0.574 to 2.29 µM) against Candida parapsilosis [17]; 0.25 to 1 µg/mL (≈ 0.574 to 2.29 µM) with Pichia kudriavzevii; 0.0156 µg/mL (≈ 0.0358 µM) in the experiment with Cryptococcus neoformans [18].

For the compound `CN(CC(=O)Nc1ccccc1)CC(O)(Cn1cncn1)c1ccc(F)cc1F` (stereo not given), the MIC80 against Candida tropicalis [15] was 0.25 to 1 µg/mL (≈ 0.623 to 2.49 µM); with Candida albicans [16], 0.0156 µg/mL (≈ 0.0389 µM); in the experiment on Candida parapsilosis [17], 0.25 to 1 µg/mL (≈ 0.623 to 2.49 µM); in the experiment with Pichia kudriavzevii, 0.25 to 1 µg/mL (≈ 0.623 to 2.49 µM); in the experiment on Cryptococcus neoformans [18], 0.0156 µg/mL (≈ 0.0389 µM).

With `OC(CN(Cc1ccc(F)cc1)C1CC1)(Cn1cncn1)c1ccc(F)cc1F` (stereo not given), the Ratio with Fonsecaea compacta [1], in the experiment on Cryptococcus neoformans [5], in the experiment on Candida albicans [6], in the experiment with Microsporum canis [7], in the experiment on Candida tropicalis [8] and with Aspergillus fumigatus [10] was 4 throughout. Also, in the experiment on Trichophyton rubrum [12], the Ratio was 4. Besides, the MIC80 with Fonsecaea compacta [2], in the experiment with Aspergillus fumigatus [3], against Trichophyton rubrum [4], in the experiment on Microsporum canis [9] and with Candida tropicalis [11] was 0.125 µg/mL (≈ 0.311 µM) in each case.

Regarding `CC(C)(C)c1ccc(CN(CC(O)(Cn2cncn2)c2ccc(F)cc2F)C2CC2)cc1` (stereo not given), the Ratio with Fonsecaea compacta [1], with Cryptococcus neoformans [5], in the experiment on Candida albicans [6], in the experiment with Microsporum canis [7], in the experiment with Candida tropicalis [8] and in the experiment on Aspergillus fumigatus [10] was 4 throughout. For the same compound, the Ratio in the experiment with Trichophyton rubrum [12] worked out at 4. For the same compound, the MIC80 in the experiment on Fonsecaea compacta [2], in the experiment with Aspergillus fumigatus [3], with Trichophyton rubrum [4], in the experiment on Microsporum canis [9] and in the experiment on Candida tropicalis [11] was 0.125 µg/mL (≈ 0.284 µM) throughout.

With `CN(CC(=O)Nc1ccc(OC(F)(F)F)cc1)CC(O)(Cn1cncn1)c1ccc(F)cc1F` (stereo not given), the MIC80 was 0.25 to 1 µg/mL (≈ 0.515 to 2.06 µM) against Candida tropicalis [15]; 0.0156 µg/mL (≈ 0.0321 µM) against Candida albicans [16]; 0.25 to 1 µg/mL (≈ 0.515 to 2.06 µM) with Candida parapsilosis [17]; 0.25 to 1 µg/mL (≈ 0.515 to 2.06 µM) against Pichia kudriavzevii; 0.0156 µg/mL (≈ 0.0321 µM) against Cryptococcus neoformans [18].

On to `Cc1ccc(NC(=O)CN(C)CC(O)(Cn2cncn2)c2ccc(F)cc2F)cc1C` (stereo not given), for which the MIC80 is 0.25 to 1 µg/mL (≈ 0.582 to 2.33 µM) against Candida tropicalis [15]; 0.0156 µg/mL (≈ 0.0363 µM) in the experiment on Candida albicans [16]; 0.25 to 1 µg/mL (≈ 0.582 to 2.33 µM) against Candida parapsilosis [17]; 0.25 to 1 µg/mL (≈ 0.582 to 2.33 µM) against Pichia kudriavzevii; 0.0156 µg/mL (≈ 0.0363 µM) in the experiment with Cryptococcus neoformans [18].

For the compound `Cc1ccc(NC(=O)CN(C)CC(O)(Cn2cncn2)c2ccc(F)cc2F)cc1` (stereo not given), the MIC80 is 0.25 to 1 µg/mL (≈ 0.602 to 2.41 µM) against Candida tropicalis [15]; 0.0156 µg/mL (≈ 0.0376 µM) with Candida albicans [16]; 0.25 to 1 µg/mL (≈ 0.602 to 2.41 µM) in the experiment on Candida parapsilosis [17]; 0.25 to 1 µg/mL (≈ 0.602 to 2.41 µM) in the experiment with Pichia kudriavzevii; 0.0156 µg/mL (≈ 0.0376 µM) against Cryptococcus neoformans [18].

Regarding `CN(CC(=O)Nc1ccc(F)cc1)CC(O)(Cn1cncn1)c1ccc(F)cc1F` (stereo not given), the MIC80 is 0.25 to 1 µg/mL (≈ 0.596 to 2.38 µM) in the experiment with Candida tropicalis [15]; 0.0156 µg/mL (≈ 0.0372 µM) against Candida albicans [16]; 0.25 to 1 µg/mL (≈ 0.596 to 2.38 µM) in the experiment on Candida parapsilosis [17]; 0.25 to 1 µg/mL (≈ 0.596 to 2.38 µM) against Pichia kudriavzevii; 0.0156 µg/mL (≈ 0.0372 µM) in the experiment on Cryptococcus neoformans [18].

As for `CN(CC(=O)Nc1ccc(Br)cc1)CC(O)(Cn1cncn1)c1ccc(F)cc1F` (stereo not given), the MIC80 with Candida tropicalis [15] was 0.25 to 1 µg/mL (≈ 0.52 to 2.08 µM); with Candida albicans [16], 0.0156 µg/mL (≈ 0.0325 µM); against Candida parapsilosis [17], 0.25 to 1 µg/mL (≈ 0.52 to 2.08 µM); with Pichia kudriavzevii, 0.25 to 1 µg/mL (≈ 0.52 to 2.08 µM); in the experiment on Cryptococcus neoformans [18], 0.0156 µg/mL (≈ 0.0325 µM).

What is called MIC80 is the lowest concentration that inhibits either 80% of growth or 80% of the strains tested, depending on the study. One may read the MIC as the least concentration at which growth counts as inhibited. Low readings indicate inhibition by little substance, high ones a need for much substance.
